Measurements: ChEMBL document CHEMBL1128724, “Unsaturated acyclic analogues of 2'-deoxyadenosine and thymidine containing fluorine: synthesis and biological activity” (J Med Chem, 1995)

How the values were obtained:
L1210 = assay: Growth inhibition of murine leukemia L1210 cells.; assay type: functional, cell-based; conditions: Mus musculus
ATH-8 cell line [1] = assay: Inhibitory activity against HIV-1 in ATH8 cells; assay type: functional, cell-based; conditions: Homo sapiens
ATH-8 cell line [2] = assay: Inhibitory activity against HIV-1 in ATH8 cells; IA means Inactive; assay type: functional, cell-based, Homo sapiens

| Compound | IC50 (L1210) | also measured |
| --- | --- | --- |
| Nc1ncnc2c1ncn2C(F)C#CCO (centres undefined) | 89 µM |  |
| Cc1cn(C/C=C(/F)CO)c(=O)[nH]c1=O | 60 µM |  |
| Nc1ncnc2c1ncn2C/C=C(/F)CO |  | IC50 (ATH-8 cell line [1]): 100 µM |
| Nc1ncnc2c1ncn2C/C=C(\F)CO |  | IC50 (ATH-8 cell line [2]): Not Active |
